Several values for one entry are separate records, joined by “and”; a condition that tells them apart may be missing. Equal values may be shown once.
Assays:
[1] = system: PGE2 expressed on the skin surface; assay: PGE2 on skin surface 24 h after 4 h Hill Top chamber exposure, Sebutape collection, immunoassay; assay type: in vivo, human; details: for Normalized levels of PGE2, Average: average of 10 panelists; for Normalized levels of PGE2: individual panelists 1-10
Protocol: Assay Designs, Inc. PGE2 Enzyme Immunoassay:
(§1) 1. Baseline (corresponding to an untreated control) levels of PGE2 contained in secretions present on the skin surface were measured along the lower volar forearms of test panelists by placing a mild adhesive-coated microporous plastic film, Sebutape® (Cuderm Corporation, Dallas, Tex.), on the skin with the adhesive side down, making direct contact with the skin. The Sebutape® was removed from the skin after 1 minute and then placed in a vial containing 500 μL saline. This Sebutape® collection process was repeated three more times with a 1-minute contact time for each Sebutape®. The collected samples were stored at −70 ° C. until analysis (described below).
(§2) 2. Hill Top chambers® (Hill Top Research, Cincinnati, Ohio) containing 400 μL of the test fluid (deionized or tap water) were applied to the lower volar forearms of the test panelists. After 4 hours of exposure, the Hill Top chambers® were removed and the test sites were rinsed with tap water and patted dry.
(§3) 3. Twenty four hours after the Hill Top chambers® were removed and the arm was rinsed and patted dry, skin secretions containing PGE2 expressed on the skin surface were collected using the Sebutape absorption method described previously in Step #1 above.
The collected Sebutape® samples were analyzed using the following methods. After thawing, the samples were sonicated for 15 minutes and vortexed vigorously. The solutions, containing extracted proteins and eicosanoids, were analyzed for levels of PGE2 via immunoassay (Assay Designs High Sensitivity PGE2 Enzyme Immunoassay #93001) and levels of total protein using the bicinchoninic acid (BCA) protein assay (Kit #23225, Pierce Chemical Company, Rockford, Ill.).
Four Sebutape® samples were taken from each test site. The measured levels of PGE2 (in pg/mL) were normalized against the total amount of protein (in μg/mL) extracted from each Sebutape® strip. The four normalized values were then averaged to determine the levels of PGE2 (in pg/μg) expressed for each test site. To account for person-to-person variability, PGE2 levels, for each panelist were further normalized relative to the levels of PGE2 measured for the untreated control.
The method of Example 1 was extended to measure the level of inflammation or irritation elicited by a dilute solution (8% w/w in deionized water) of a mild facial cleanser (Neutrogena Fresh Foaming Cleanser, Neutrogena Corporation, Los Angeles, California) compared to that of deionized water.

[2] = system: IL-1α expressed on the skin; assay: IL-1α on skin surface after Hill Top chamber exposure to SLS solutions, Sebutape collection, ELISA; assay type: in vivo, human
Protocol: Endogen, Inc. Interleukin-1α ELISA
as §1, §2, §3
The level of irritation caused by dilute solutions of SLS as a function of SLS concentration was assessed using the method described in Example 1, with the exception that the level of Interleukin-1α(IL-1α) was used to assess the degree of irritation, rather than PGE2. The levels of IL-1α were measured via immunoassay (Human IL-1αKit #EH2-IL1a, Endogen, Inc., Woburn. Mass.). As with PGE2, the measured levels of IL-1α(in pg/mL) were normalized against the total amount of protein (in μg/mL) extracted from each Sebutape® strip. To account for person-to-person variability, IL-1α levels for each treatment site were further normalized using the baseline levels of IL-1α measured for the untreated control.

| Structure (SMILES) | Normalized levels of PGE2, Average ([1]; Example 3, cleanser as 8% w/w in deionized water) | Normalized levels of PGE2 ([1]; Example 3, cleanser as 8% w/w in deionized water, 4 h chamber) | Normalized levels of PGE2, Average ([1]; 4 h chamber on volar forearm, collected 24 h later) | Normalized levels of PGE2 ([1]; 400 μL fluid, 4 h chamber on volar forearm, collected 24 h later, normalized to protein and untreated control) | Levels of IL-1α ([2]; 5 w/w % SLS in deionized water) | Levels of IL-1α ([2]; 10 w/w % SLS in deionized water) | Levels of IL-1α ([2]; 20 w/w % SLS in deionized water) |
| --- | --- | --- | --- | --- | --- | --- | --- |
| O [Deionized Water] | 1.53 dimensionless units | 1.49 dimensionless units and 2.12 dimensionless units and 1.25 dimensionless units and 1.60 dimensionless units and 1.77 dimensionless units and 1.45 dimensionless units and 1.98 dimensionless units and 1.48 dimensionless units and 1.30 dimensionless units and 0.83 dimensionless units | 0.86 dimensionless units | 0.92 dimensionless units and 0.84 dimensionless units and 0.93 dimensionless units and 1.71 dimensionless units and 1.01 dimensionless units and 0.94 dimensionless units and 0.40 dimensionless units and 0.56 dimensionless units and 0.62 dimensionless units and 0.69 dimensionless units | – | – | – |
| CCCCCCCCCCCCOS(=O)(=O)[O-].[Na+] [SLS, sodium lauryl sulfate] | – | – | – | – | 2.83 dimensionless units | 2.71 dimensionless units | 1.00 dimensionless units |

Source: US20030068663A1, “Method and kit for measuring skin inflammation or irritation” (priority 2001, published 2003)
